Source: patent US20100174007A1, “Haloneopentyl Bis(ALKYL) Phosphate Ester, Flame Retardant Composition Containing Same and Polyurethane Foam Prepared Therewith” (priority 2007, published 2010)

How the values were obtained:
[1] = test system: Salmonella typhimurium TA1535; assay: Ames test, strain TA1535; type: cell-based; settings: with and without metabolic activation; base-pair substitution strain; note: key: +: Plus sign indicates observed mutagenic effects; −: minus sign indicates non-mutagenic property
Protocol: (§1) In each Ames test, a single chemical substance was evaluated in the four standard Salmonella typhimurium tester strains, TA1535, TA1537, TA98, and TA100. Strains TA1535 and TA100 identify mutagens that act via base-pair substitution whereas TA1537 and TA98 identify mutagens capable of causing frameshifts in the DNA. The bacterial strain E. coli WP2uvrA was also included as another sensitive tester strain. Each test was conducted with and without metabolic activation.

[2] = test system: Salmonella typhimurium TA98; assay: Ames test, strain TA98; type: cell-based; settings: with and without metabolic activation; frameshift strain; note: key: +: Plus sign indicates observed mutagenic effects; −: minus sign indicates non-mutagenic property
Protocol: as §1

[3] = test system: Salmonella typhimurium TA1537; assay: Ames test, strain TA1537; type: cell-based; settings: with and without metabolic activation; frameshift strain; note: key: +: Plus sign indicates observed mutagenic effects; −: minus sign indicates non-mutagenic property
Protocol: as §1

[4] = test system: Salmonella typhimurium TA100; assay: Ames test, strain TA100; type: cell-based; settings: with and without metabolic activation; base-pair substitution strain; note: key: +: Plus sign indicates observed mutagenic effects; −: minus sign indicates non-mutagenic property
Protocol: as §1

[5] = test system: E. coli WP2uvrA; type: cell-based
Protocol: as §1

[6] = test system: rats; assay: Acute oral toxicity, limit dose; type: in vivo
Protocol: No rats died after the administration of an oral limit dose of 5000 mg/kg of products from Example 1(B). Clinical signs were minimal and all rats fully recovered by day 3. The acute oral LD50 was greater than 5000 mg/kg.

| Molecule | Ames test result TA1535 [1] | Ames test result TA98 [2] | Ames test result TA1537 [3] | Ames test result TA100 [4] | Ames test result WP2uvrA [5] | acute oral LD50 ([6]; oral) | mortality after oral limit dose ([6]; oral limit dose of 5000 mg/kg) | clinical signs after oral limit dose ([6]; oral limit dose of 5000 mg/kg, all rats fully recovered by day 3) |
| --- | --- | --- | --- | --- | --- | --- | --- | --- |
| CC(C)(C)c1ccccc1OP(=O)(OC(CCl)CCl)OC(CCl)CCl [O-tert-Butylphenyl bis(1,3-dichloro-2-propyl)phosphate] | + | − | − | + | − |  |  |  |
| O=P(OCC(CBr)(CBr)CBr)(OC(CCl)CCl)OC(CCl)CCl [Phosphoric acid, 3-bromo-2,2-bis(bromomethyl)propyl bis[2-chloro-1-(chloromethyl)ethyl]ester] | − | − | − | + | − |  |  |  |
| tribromoneopentyl bis(isobutyl)phosphate [Products of 1(B)] | − | − | − | − | − | greater than 5000 mg/kg | No rats died | minimal |
